Laboratory results from US20070043091A1, “Kv1.5-BLOCKER FOR THE SELECTIVE INCREASE OF ATRIAL CONTRACTILITY AND TREATMENT OF CARDIAC [sequence]” (SANOFI-AVENTIS DEUTSCHLAND GMBH, priority 2004, published 2007).
Entries after “also recorded” stand apart in the source; their conditions may differ.

Key:
pig left atrium [1] = test: Effect of Kv1.5 blockers on atrial contractility in anesthetized pigs, sinus rhythm; format: in vivo, German Landrace pigs; details: 1 mg/kg i.v.
Procedure: (§1) A) Test of the Effect of Kv1.5 Blockers on Atrial Contractility in Anesthetized Pigs
(§2) Material and methods: German Landrace pigs were premedicated by an intramuscular injection of 2.5-3.5 mg/kg each of xylazine, tiletamine and zolazepam in a mixing syringe. The anesthesia was induced with pentobarbital (approx. 30 mg/kg i.v.) and maintained by continuous infusion of pentobarbital (12-17 mg/kg/h).
(§3) After induction of anesthesia and after a tracheotomy, the animals were intubated and ventilated with a mixture of ambient air with 40% oxygen.
(§4) The ventilation rate and volume were governed by regularly measured blood gas and pH levels. The body temperature was continuously recorded and controlled by a heated underlay and/or red light lamp and/or warming of the breathed air to keep it constant (about 37-38° C.).
The following blood vessels of the pigs were exposed and cannulated:
External jugular vein (anesthesia infusion), carotid artery (introduction of a tip manometer catheter in the left ventricle to record the pressure there), lateral saphenous vein (dosage of test substance), epigastrica cranialis superficialis vein (fluid infusion), femoral artery (peripheral blood pressure recording) and femoral vein (introduction of MAP catheter right atrium).
The parameters responsible for the contractility are determined using two ultrasonic sensors on the left atrium (P/N JP 5-2, Triton Technology®) [references 1 and 2]. These two piezoelectric sensors are implanted in the cranio-caudal direction through punctuate incisions at the extreme edge of the atrium. The incisions were each closed with a U stitch (2-0 Vicryl®).
The two ultrasonic sensors were than connected to the evaluation unit. In addition, a pressure-measuring catheter was implanted at the ventral edge of the atrium in order to record the left atrial pressure.
The left atrial systolic shortening (LASS) was determined from the atrial diameter at the start of the active atrial pressure curve and the minimum diameter. Since the atrial contractility depends on the initial extension, the left atrial systolic shortening was divided by the value at the start of active atrial contraction (LASS index). The maximum steepness of the contraction curve was determined by importing the raw data points to Microsoft Excel for calculation of the maximum steepness of the curve. In order to exclude breathing-related variations, at least 10 cardiac cycles were analyzed. This parameter, which likewise indicates an improved contractility, is referred to as LASS steepness.
Recording of the initial values was followed by infusion for 10 minutes of the vehicle which was used later and is composed of 0.5 ml of DMSO, 2.5 ml of PEG and 2.0 ml of glucose G20. […]

pig left atrium [2] = test: Effect on atrial contractility in anesthetized pigs after one hour of induced atrial fibrillation; format: in vivo, German Landrace pigs
Procedure: as §1, §2, §3
In a further series of experiments, the test substance was administered only after one hour of atrial fibrillation induced by persistent high-frequency stimulation (1200 beats/min) of the right atrium. In this case, the parameters of atrial contractility were recorded before/after the period of fibrillation and after administration of the test substance and compared with those after the vehicle control.
as §4
The following blood vessels of the pigs were exposed and cannulated: […]
The parameters responsible for the contractility are determined using two ultrasonic sensors on the left atrium (P/N JP 5-2, Triton Technology®) [references 1 and 2]. […]
The left atrial systolic shortening (LASS) was determined from the atrial diameter at the start of the active atrial pressure curve and the minimum diameter. […] The maximum steepness of the contraction curve was determined by importing the raw data points to Microsoft Excel for calculation of the maximum steepness of the curve. In order to exclude breathing-related variations, at least 10 cardiac cycles were analyzed. […]

[3] = test system: pigs with pericardial air instillation; test: Left ventricular ejection (cardiac output) in a model of diastolic dysfunction, pericardial air instillation; format: in vivo; details: for Cardiac output, % of the initial value before example 1 / Cardiac output, % of the initial value before instillation / Cardiac output, average: 3 mg/kg i.v. over 30 min
Procedure: B) Improved Left Ventricular Ejection after Kv1.5 Blockers in a Model of Diastolic Dysfunction Methods: Pigs were anesthetized as described in A) and thoracotomized. A flow sensor was attached over the aorta to measure the cardiac output. In a stable hemodynamic situation, air (approx. 30 ml) was instilled into the pericardial using a cannula. The intention of pericardial air instillation is to impede ventricular filling, which eventually leads to a decreased cardiac output (diastolic heart failure). […] The pericardial air instillation leads to a distinct reduction in the cardiac output (table 3).

[4] = time not given (start of infusion)

CCCCS(=O)(=O)Nc1ccccc1C(=O)N[C@H](CC)c1ccc(OC)nc1 (single isomer, unassigned) [Example 5]
LASS, increase in % (pig left atrium [1]; after vs before administration): 68% | LASS, absolute values, after administration (pig left atrium [1]; n = 8): 8.25 ± 1.43

COc1ccc(CC(=O)NCc2ccccc2-c2ccccc2C(=O)NCCc2cccnc2)cc1 [Example 1, N-(2-pyridin-3-ylethyl)-2′-{[2-(4-methoxyphenyl)acetylamino]-methyl}biphenyl-2-carboxamide]
LACC steepness, absolute values (pig left atrium [2]; 1 mg/kg i.v., after 1 hour atrial fibrillation): -0.197 cm/s | LACC steepness, in % of the initial value (pig left atrium [2]; 1 mg/kg i.v., after 1 hour atrial fibrillation, initial value = before AF): 112.6% | atrial function / contractility, in words (pig left atrium [2]; after one hour of atrial fibrillation): statistically significant improvement; also recorded: above the base line level | LACC steepness, absolute value, after administration (pig left atrium [1]): -0.152 ± 0.02 cm/s | LACC steepness, increase in % (pig left atrium [1]; after vs before administration): +38.2% | Cardiac output, % of the initial value before example 1 ([3]; 2′): 102% | Cardiac output, % of the initial value before instillation ([3]; 2′): 72% | Cardiac output, average ([3]; 2′): 1.55 L/min | Cardiac output, % of the initial value before example 1 ([3]; 5′): 104% | Cardiac output, % of the initial value before instillation ([3]; 5′): 73% | Cardiac output, average ([3]; 5′): 1.58 L/min | Cardiac output, % of the initial value before example 1 ([3]; 10′): 111% | Cardiac output, % of the initial value before instillation ([3]; 10′): 78% | Cardiac output, average ([3]; 10′): 1.69 L/min | Cardiac output, % of the initial value before example 1 ([3]; 15′): 117% | Cardiac output, % of the initial value before instillation ([3]; 15′): 82% | Cardiac output, average ([3]; 15′): 1.78 L/min | Cardiac output, % of the initial value before example 1 ([3]; 20′): 121% | Cardiac output, % of the initial value before instillation ([3]; 20′): 84% | Cardiac output, average ([3]; 20′): 1.84 L/min | Cardiac output, % of the initial value before example 1 ([3]; 25′): 123% | Cardiac output, % of the initial value before instillation ([3]; 25′): 86% | Cardiac output, average ([3]; 25′): 1.88 L/min | Cardiac output, % of the initial value before example 1 ([3]; 30′): 125% | Cardiac output, % of the initial value before instillation ([3]; 30′): 87% | Cardiac output, average ([3]; 30′): 1.90 L/min | Cardiac output, % of the initial value before example 1 ([3]; 35′): 120% | Cardiac output, % of the initial value before instillation ([3]; 35′): 85% | Cardiac output, average ([3]; 35′): 1.83 L/min | Cardiac output, % of the initial value before example 1 ([3]; 40′): 117% | Cardiac output, % of the initial value before instillation ([3]; 40′): 83% | Cardiac output, average ([3]; 40′): 1.79 L/min | Cardiac output, % of the initial value before example 1 ([3]; 50′): 116% | Cardiac output, % of the initial value before instillation ([3]; 50′): 82% | Cardiac output, average ([3]; 50′): 1.76 L/min | Cardiac output, % of the initial value before example 1 ([3]; 60′): 111% | Cardiac output, % of the initial value before instillation ([3]; 60′): 79% | Cardiac output, average ([3]; 60′): 1.69 L/min | Cardiac output, % of the initial value before example 1 ([3]; 70′): 108% | Cardiac output, % of the initial value before instillation ([3]; 70′): 78% | Cardiac output, average ([3]; 70′): 1.65 L/min | Cardiac output, % of the initial value before example 1 [3, 4]: 100% | Cardiac output, % of the initial value before instillation [3, 4]: 71% | Cardiac output, average [3, 4]: 1.53 L/min | maximum increase in the reduced cardiac output ([3]; 3 mg/kg infused in 30 min, n=11): 25%
